The record followed here is US11369665B2, “Anti-inflammatory peptides and composition comprising the same” (GemVax & KAEL Co., Ltd., priority 2012, dated 2022).

The test system of test [1] is Bax, GSKβ, Cytochrom-c, caspase-3. Briefly: Western blot of apoptotic signals in amyloid-β damaged neural stem cells. The test is classed as cell-based, rat. As to conditions: 20 μM amyloid beta, PEP-1 1, 10 and 50 μM, FIGS. 15D, 15G-15I.
The subject of test [2] is neural stem cells. The test can be described thus: Co-treatment amyloid-β and PEP-1: proliferation (BrdU assay). The test is classed as cell-based, rat. The conditions noted are these: 20 μM amyloid-β protein, co-treated 48 hours. The method, then: (§1) To determine whether PEP 1 has the effect of suppressing the neurotoxicity caused by amyloid-β protein, 20 μM amyloid-β protein and various concentrations of PEP-1 were co-treated for 48 hours. The cell viability and apoptosis were measured using MMT assay, CCK-8 assay, LDH assay and TUNEL assay, and neural stem cell proliferation by BrdU assay.
We also confirmed with BrdU assay that the decreased cell proliferation due to amyloid-β protein was restored when processed with PEP-1 (Refer to FIG. 10).
(In general: Uptake of a labelled nucleoside into DNA is a usual measure of proliferation.)

The test system of a further test is cytokines. The test can be described thus: qRT-PCR of cytokine levels in THP1 cell line. As to conditions: PMA-differentiated THP-1, LPS 10 ng/ml and 4 μM peptide, 4 hr, FIG. 3. The test is classed as cell-based, human. The method, then: As a Human acute monocytic leukemia cell line, THP-1 monocyte cell line ([…] TYPE CULTURE COLLECTION® (Manassas, Va., USA) was used to reconfirm the effects of PEP 1. Cells were grown at a density of 0.5-7×10^5 cells/mL in RPMI 1640 containing 10% FBS, 0.05 mM 2-mercaptoethanol, 100 U/ml penicillin, 100 μg/mL streptomycin, and maintained at 37° C. under 5% CO2. THP-1 cells were differentiated into macrophages by treating cells with phorbol myristate acetate (PMA) at 100 ng/mL for 24 hr at 37° C. for 24 hr.
Following differentiation into macrophages, THP-1 cells were washed two times using complete RPMI 1640 (5 min/wash). Then, cells were treated for 4 hr. with 10 ng/ml LPS and/or 4 μM peptide RIA in FBS free RPMI 1640.
Total RNA samples were isolated from peptide-treated THP-1 cells by using Trizol (QIAZOL®) reagent and, and cDNA was synthesized by reverse transcriptase PCR using reverse transcription PCR kit from PROMEGA CORPORATION® following manufacturer's protocol.
Then, real-Time qPCR was performed using CFX96 (BIO-RAD®) instrument with SYBR® Green qPCR system. Primers used in the experiments are found in Table 5. The PCR cycling conditions were 95° C. for 10 min for activation of HotStart DNA Taq Polymerase, followed by 45 cycles of 95° C. for 10 sec. […] All samples were measured in triplicate and differences in gene expression were calculated using the 2-cycle threshold method. […]
A general note: Real-time PCR tracks product formation cycle by cycle.

For a further test, the system named is GADD 153. Briefly: 2D-electrophoresis protein expression in neural stem cells. The test is classed as cell-based, rat. The conditions noted are these: 20 ug β-amyloid + PEP 1 treated group, versus negative control 1.0. The method, then: (§2) Protein expression level of PEP-1 treated group and untreated group was analyzed by 2D-electrophoresis technique and antibody microarray technique. Prepared 200 μg by extracting proteome from the neural stem cells cultured in Experiment 3-1 of Example 3. In addition, the group in which PEP-1 was not treated was used as the comparison group in the same condition.
(§3) 2D-electrophoresis was performed using 12% acrylamide gels. First gel electrophoresis was performed at PI 4˜10 N, using a gel size of 8.5×7 cm. After electrophoresis, it was dyed with Colloidal Coomassie Blue, and then compared expression by using PDQuest software to analyze each spot.
(§4) Difference in the expression levels of more than 1.5 times was identified using MALDI-TOF MS (Matrix Desorption/Ionization Time of Flight Mass Spectromestry). Among these, proteins correlated with inflammation-related signaling, such as i-NOS and HMGB-1 were identified (Refer to Table 6). The changes in protein expression levels either increased or decreased by 1.5 times by amyloid-β protein, but it was confirmed that expression level was regulated close to that of negative control when PEP-1 was added (Refer to FIGS. 14A-14B).
(§5) The Table 6 below is an analysis of expression levels of proteins associated with inflammation by 2D electrophoresis technique. The control group represents protein expression level of cells that were not treated with neither amyloid-β protein nor PEP-1.

For a further test, the system named is MAP Kinase. The test is described as above. The test is classed as cell-based, rat. The conditions noted are these: 20 ug β-amyloid + PEP 1 treated group, versus negative control 1.0. The method, then:
as §2, §3, §4, §5

The subject of the next test is i-NOS. Described as above. The test is classed as cell-based, rat. The conditions noted are these: 20 ug β-amyloid + PEP 1 treated group, versus negative control 1.0. On the procedure:
as §2, §3, §4, §5

In a further test the test system is e-NOS. The test is described as above. The test is classed as cell-based, rat. As to conditions: 20 ug β-amyloid + PEP 1 treated group, versus negative control 1.0. The method, then:
as §2, §3, §4, §5

A further test deals with Pyk2. The test is described as above. Type of test: cell-based, rat. The conditions noted are these: 20 ug β-amyloid + PEP 1 treated group, versus negative control 1.0. On the procedure: as §2, §3, §4, §5
The test system of the next test is HMGB1. The description is as above. Type of test: cell-based, rat. As to conditions: 20 ug β-amyloid + PEP 1 treated group, versus negative control 1.0. On the procedure: as §2, §3, §4, §5
A further test deals with HSP 90. The description is as above. Type of test: cell-based, rat. The conditions noted are these: 20 ug β-amyloid + PEP 1 treated group, versus negative control 1.0. The method, then:
as §2, §3, §4, §5

Another test relates to HSP 70. The description is as above. Type of test: cell-based, rat. As to conditions: 20 ug β-amyloid + PEP 1 treated group, versus negative control 1.0. On the procedure:
as §2, §3, §4, §5

Test [3] relates to neural stem cells. The test can be described thus: Co-treatment amyloid-β and PEP-1: cell death (LDH assay). The test is classed as cell-based, rat. As to conditions: 20 μM amyloid-β protein, co-treated 48 hours. The method, then:
as §1
(Refer to FIG. 8). LDH assay was carried out for assessment of the degree of cell death as another method, and we confirmed that the increase in cell death by amyloid-β decreased by PEP-1, and efficacy was seen starting at 1 μM concentration (Refer to FIG. 9).

Turning to EARPALLTSRLRFIPK [PEP-1], the “protein expression levels of apoptotic signals Bax, GSKβ, Cytochrom-c, caspase-3” value in test [1] is on record as “decreased the protein expression levels”. The “cell proliferation decreased by amyloid-β (BrdU)” value in the test with neural stem cells [2] was “restored”. Moreover, the “cytokines involved in the inflammatory responses (qRT-PCR)” value in the test with cytokines is listed as “decreased noticeably”. Moreover, the “GADD 153 expression (fold)” value in the test with GADD 153 is 1.2 fold. The “MAP Kinase expression (fold)” value in the test on MAP Kinase is reported as 1.0 fold. Further, the “i-NOS expression (fold)” value in the test with i-NOS is on record as −1.1 fold. Also, in the test on e-NOS, the “e-NOS expression (fold)” value is given as −1.1 fold. For the same sequence, the “Pyk2 expression (fold)” value with Pyk2 was 1.2 fold. In the test with HMGB1, the “HMGB1 expression (fold)” value is 2.8 fold. Besides, the “HSP 90 expression (fold)” value with HSP 90 worked out at 1.0 fold. In addition, the “HSP 70 expression (fold)” value with HSP 70 was 1.2 fold. In the test with neural stem cells [3], the “concentration at which efficacy starts (LDH)” value was 1 µM and the “increase in cell death by amyloid-β (LDH)” value is recorded as “decreased”.
